# Data as given in patent US20260083865A1, “PROSTATE SPECIFIC MEMBRANE ANTIGEN (PSMA) LIGANDS AND USE THEREOF” (priority 2022, published 2026).
# Where two headings read alike, the source gives them in different places. Numbered stars: 1 amine (or outer) side, 2 acyl side, 3 side chain; on linkers, the order of the positions; unused ones are H or OH. Bridge positions count the residues as written; N and C are the ends. Square brackets hold non-standard residues; d marks the D form. Peptide text beside a SMILES is read from it. * marks the point of attachment. TtdsdLys(DOTA)NH2 = NC(=O)[C@@H](CCCCNC(=O)CN1CCN(CC(=O)O)CCN(CC(=O)O)CCN(CC(=O)O)CC1)NC(=O)CCC(=O)NCCCOCCOCCOCCCN*; DOTA = O=C(O)CN1CCN(CC(=O)O)CCN(CC(=O)*)CCN(CC(=O)O)CC1; Phe(3-Cl) = N[C@@H](Cc1cccc(Cl)c1)C(=O)O; Phe(4-CN) = N#Cc1ccc(C[C@H](N)C(=O)O)cc1; Phe(4-Cl) = N[C@@H](Cc1ccc(Cl)cc1)C(=O)O; X1 = O=C(CC1CCN([*:1])CC1)[*:2]; Cit = NC(=O)NCCC[C@H](N)C(=O)O; Tle = CC(C)(C)[C@H](N)C(=O)O; 4Amb = NCc1ccc(C(=O)O)cc1; Aib = CC(C)(N)C(=O)O
# Columns and labels:
# [1] = molecular target: T1, PSMA-expressing C4-2 cells (Homo sapiens, UniProt Q04609); experiment: FACS binding assay (competition with 50 nM PSM-0183); conditions: read-out: pIC50 [C4-2] CAT (converted)
# T1 construct: PSMA-expressing C4-2 cells (ATCC, Cat. No. CRL-3314) were cultured in RPMI-1640; host or cells: C4-2 cells
# Summary of the method: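 Competition format: fluorescent tracer PSM-0183 (50 nM) displaced from PSMA on C4-2 cells by a test compound titration over 1 h at 4 °C. Bound tracer was quantified as flow-cytometric AF488 median fluorescence after washing. Four-parameter logistic fits of MFI data gave IC50 and pIC50.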
# [2] = molecular target: T2, Fc-fusion protein of human PSMA (hPSMA-Fc) (Homo sapiens, UniProt Q04609); experiment: Surface plasmon resonance assay (Biacore T200, single cycle kinetic); assay type: binding; conditions: read-out: pKD CAT (converted)
# T2 construct: purchased Acro Biosystems PSA-H5264
# Summary of the method: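 KD, expressed as pKD, came from 1:1 Langmuir fits of reference- and buffer-blank-subtracted SPR data. The runs were single-cycle kinetics at 25° C in HBST/0.1% DMSO over human PSMA-Fc, captured to ~1000 RU on a peptide-coated CM5 surface and regenerated with 10 mM glycine pH 1.5.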
# [3] = FACS binding, C4-2 cells, competition with 50 nM PSM-0183, category
# [4] = SPR, hPSMA-Fc, single cycle kinetic, 25° C., category
# [5] = FACS binding, PSMA-expressing C4-2 cells, pIC50 category
# [6] = PSMA SPR assay, hPSMA-Fc, 25° C., pKD category
# [7] = FACS binding, C4-2 cells, category
# T2 sequence (Q04609 44-750 limits assumed): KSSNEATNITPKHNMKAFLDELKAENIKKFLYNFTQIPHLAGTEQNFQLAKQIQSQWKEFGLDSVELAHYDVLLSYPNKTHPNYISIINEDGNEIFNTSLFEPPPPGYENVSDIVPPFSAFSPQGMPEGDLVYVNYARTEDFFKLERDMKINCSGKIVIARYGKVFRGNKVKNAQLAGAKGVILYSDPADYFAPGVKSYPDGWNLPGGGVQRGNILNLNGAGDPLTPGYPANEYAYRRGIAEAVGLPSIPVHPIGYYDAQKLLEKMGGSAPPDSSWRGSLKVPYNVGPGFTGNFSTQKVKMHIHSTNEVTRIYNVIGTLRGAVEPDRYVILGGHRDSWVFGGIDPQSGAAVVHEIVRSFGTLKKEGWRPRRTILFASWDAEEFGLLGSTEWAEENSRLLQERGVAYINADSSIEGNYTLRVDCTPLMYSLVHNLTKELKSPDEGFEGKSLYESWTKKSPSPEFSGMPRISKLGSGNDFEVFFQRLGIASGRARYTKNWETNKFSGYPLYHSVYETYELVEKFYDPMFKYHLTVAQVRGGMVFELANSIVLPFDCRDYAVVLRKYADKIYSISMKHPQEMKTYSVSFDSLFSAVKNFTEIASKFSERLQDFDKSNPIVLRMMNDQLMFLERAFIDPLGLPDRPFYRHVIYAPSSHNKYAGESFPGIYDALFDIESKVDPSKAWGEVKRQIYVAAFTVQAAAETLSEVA
# T1 sequence (Q04609 whole entry): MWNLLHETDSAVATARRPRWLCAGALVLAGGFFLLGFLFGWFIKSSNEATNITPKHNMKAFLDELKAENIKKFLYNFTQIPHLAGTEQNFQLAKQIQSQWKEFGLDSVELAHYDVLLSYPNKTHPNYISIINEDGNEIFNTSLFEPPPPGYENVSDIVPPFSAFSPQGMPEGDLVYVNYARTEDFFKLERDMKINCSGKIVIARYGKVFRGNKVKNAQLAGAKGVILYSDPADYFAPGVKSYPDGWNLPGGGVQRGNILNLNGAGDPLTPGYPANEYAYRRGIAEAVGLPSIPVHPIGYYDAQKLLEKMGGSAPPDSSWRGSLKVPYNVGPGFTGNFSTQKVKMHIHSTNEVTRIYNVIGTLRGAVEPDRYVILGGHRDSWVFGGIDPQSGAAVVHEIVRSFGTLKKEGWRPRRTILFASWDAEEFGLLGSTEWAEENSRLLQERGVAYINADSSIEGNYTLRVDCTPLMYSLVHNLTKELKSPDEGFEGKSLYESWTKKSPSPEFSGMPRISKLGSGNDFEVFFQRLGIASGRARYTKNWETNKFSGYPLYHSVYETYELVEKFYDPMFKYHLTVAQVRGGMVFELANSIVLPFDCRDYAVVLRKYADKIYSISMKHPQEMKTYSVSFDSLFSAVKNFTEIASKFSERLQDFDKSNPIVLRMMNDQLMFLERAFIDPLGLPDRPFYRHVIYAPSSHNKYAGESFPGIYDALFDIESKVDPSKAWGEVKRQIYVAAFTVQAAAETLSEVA
smiles,measurement,setting,value
"CC(=O)N[C@H](C(=O)NC(C)(C)C(=O)N[C@@H](Cc1ccccc1)C(=O)N[C@H]1CSSC[C@@H](C(=O)N[C@H](C(=O)N[C@H](C(=O)N[C@@H](CC(=O)O)C(N)=O)[C@@H](C)O)C(C)(C)C)NC(=O)[C@H](CC(N)=O)NC(=O)C(C)(C)NC(=O)[C@H](CCCNC(=N)N)NC(=O)[C@H](CCC(N)=O)NC1=O)[C@@H](C)O [PSM-0210, Ac-Thr-Aib-Phe-[Cys-Gln-Arg-Aib-Asn-Cys]-Tle-Thr-Asp-NH2] (Ac-T[Aib]FCQR[Aib]NC[Tle]TD-NH2; disulfide 4-9)",IC50,[1]; [3],< 200 nM
same,Kd,[2]; [4],12.6 to 126 nM
"CC(C)(NC(=O)c1ccc(CNC(=O)CN2CCN(CC(=O)O)CCN(CC(=O)O)CCN(CC(=O)O)CC2)cc1)C(=O)N[C@@H](Cc1ccc(Cl)cc1)C(=O)N[C@H]1CSSC[C@@H](C(=O)N[C@H](C(N)=O)C(C)(C)C)NC(=O)[C@H](CC(N)=O)NC(=O)C(C)(C)NC(=O)[C@H](CCCNC(=N)N)NC(=O)[C@H](CCCCN)NC1=O [PSM-0381, DOTA-Pamb-Aib-Pcf-[Cys-Lys-Arg-Aib-Asn-Cys]-Tle-NH2] ({DOTA-4Amb}-[Aib][Phe(4-Cl)]CKR[Aib]NC[Tle]-NH2; disulfide 3-8)",IC50,"[1]; pIC50 category of FACS binding, C4-2 cells",< 200 nM
same,Kd,"[2]; pKD category for PSMA SPR activity assay, hPSMA-Fc, 25° C.",< 12.6 nM
"CC(=O)N[C@H](C(=O)NC(C)(C)C(=O)N[C@@H](Cc1ccc(Cl)cc1)C(=O)N[C@H]1CSSC[C@@H](C(=O)N[C@H](C(=O)N[C@H](C(N)=O)[C@@H](C)O)C(C)(C)C)NC(=O)[C@H](Cc2c[nH]c3ccccc23)NC(=O)C(C)(C)NC(=O)[C@H](CCCNC(N)=O)NC(=O)[C@H](CCCCN)NC1=O)[C@@H](C)O [PSM-0238, Ac-Thr-Aib-Pcf-[Cys-Lys-Cit-Aib-Trp-Cys]-Tle-Thr-NH2] (Ac-T[Aib][Phe(4-Cl)]CK[Cit][Aib]WC[Tle]T-NH2; disulfide 4-9)",IC50,[1]; [3],< 200 nM
same,Kd,[2]; [4],< 12.6 nM
"CC(=O)N[C@H](C(=O)NC(C)(C)C(=O)N[C@@H](Cc1ccc(C#N)cc1)C(=O)N[C@H]1CSSC[C@@H](C(=O)N[C@H](C(=O)N[C@H](C(N)=O)[C@@H](C)O)C(C)(C)C)NC(=O)[C@H](CC(N)=O)NC(=O)C(C)(C)NC(=O)[C@H](CCCNC(=N)N)NC(=O)[C@H](CCCCN)NC1=O)[C@@H](C)O [PSM-0278, Ac-Thr-Aib-Pnf-[Cys-Lys-Arg-Aib-Asn-Cys]-Tle-Thr-NH2] (Ac-T[Aib][Phe(4-CN)]CKR[Aib]NC[Tle]T-NH2; disulfide 4-9)",IC50,[1]; [5],< 200 nM
same,Kd,[2]; [6],< 12.6 nM
"C[C@@H](O)[C@H](NC(=O)[C@@H](NC(=O)[C@@H]1CSSC[C@H](NC(=O)[C@H](Cc2cccc(Cl)c2)NC(=O)C(C)(C)NC(=O)[C@@H](NC(=O)CC2CCN(C(=O)CN3CCN(CC(=O)O)CCN(CC(=O)O)CCN(CC(=O)O)CC3)CC2)[C@@H](C)O)C(=O)N[C@@H](CCCCN)C(=O)N[C@@H](CCCNC(=N)N)C(=O)NC(C)(C)C(=O)N[C@@H](CC(N)=O)C(=O)N1)C(C)(C)C)C(N)=O [PSM-0583, DOTA-Cmp-Thr-Aib-Mcf-[Cys-Lys-Arg-Aib-Asn-Cys]-Tle-Thr-NH2] ({DOTA}-[X1]T[Aib][Phe(3-Cl)]CKR[Aib]NC[Tle]T-NH2; disulfide 5-10)",IC50,[1]; [7],< 200 nM
same,Kd,"[2]; PSMA SPR assay, category",< 12.6 nM
"CC(=O)NC(C)(C)C(=O)N[C@@H](Cc1ccc(Cl)cc1)C(=O)N[C@H]1CSSC[C@@H](C(=O)N[C@H](C(=O)N[C@H](C(N)=O)[C@@H](C)O)C(C)(C)C)NC(=O)[C@H](CC(N)=O)NC(=O)C(C)(C)NC(=O)[C@H](CCCNC(=N)N)NC(=O)[C@H](CCCCN)NC1=O [PSM-0559, Ac-Aib-Pcf-[Cys-Lys-Arg-Aib-Asn-Cys]-Tle-Thr-NH2] (Ac-[Aib][Phe(4-Cl)]CKR[Aib]NC[Tle]T-NH2; disulfide 3-8)",IC50,[1]; [7],< 200 nM
same,Kd,"[2]; PSMA SPR assay, category",< 12.6 nM
"CC(=O)N[C@@H](Cc1ccccc1)C(=O)N[C@H]1CSSC[C@@H](C(=O)N[C@@H](CC(C)C)C(=O)N[C@H](C(=O)N[C@@H](CC(=O)O)C(=O)NCCCOCCOCCOCCCNC(=O)CCC(=O)N[C@H](CCCCNC(=O)CN2CCN(CC(=O)O)CCN(CC(=O)O)CCN(CC(=O)O)CC2)C(N)=O)[C@@H](C)O)NC(=O)[C@H](CC(N)=O)NC(=O)[C@H](C)NC(=O)[C@H](CCCNC(=N)N)NC(=O)[C@H](CCCCN)NC1=O [PSM-0323, Ac-Phe-[Cys-Lys-Arg-Ala-Asn-Cys]-Lou-Thr-Asp-Ttds-lys(DOTA)-NH2] (Ac-FCKRANCLTD-{TtdsdLys(DOTA)NH2}; disulfide 2-7)",IC50,[1]; [5],> 3160 nM
same,Kd,[2]; [6],> 501 nM
